Test results: patent publication US4379917A, “6"-(Substituted)-apramycin antibiotic derivatives and intermediates and starting materials therefor” (Eli Lilly and Company, priority 1981, dated 1983)
Values after ≈ are worked out from the molar mass of the structure shown. Like-named read-outs stand apart in the source and are kept apart here.

What was measured:
[1] = system: Klebsiella pneumoniae KL2; assay: MIC by standard agar dilution test; assay type: cell-based; conditions: KL2, read-out: Minimum Inhibitory Concentration
[2] = system: Pseudomonas aeruginosa Ps9; assay: MIC by standard agar dilution test; assay type: cell-based
[3] = system: Citrobacter freundii CF17; assay: MIC by standard agar dilution test; assay type: cell-based
Salmonella typhimurium = assay: MIC by standard agar dilution test; assay type: cell-based; conditions: Salmonella enterica, read-out: Minimum Inhibitory Concentration
[4] = system: Bordetella bronchiseptica 16; assay: MIC by standard agar dilution test; assay type: cell-based
[5] = system: Pseudomonas solanacearum X185; assay: microbe, parasite or virus in culture; assay type: cell-based; conditions: Ralstonia solanacearum, X185, read-out: Minimum Inhibitory Concentration
Salmonella typhosa SA12 = assay: MIC by standard agar dilution test; assay type: cell-based; conditions: Salmonella enterica, read-out: Minimum Inhibitory Concentration
Proteus morganii PR2 = assay: MIC by standard agar dilution test; assay type: cell-based; conditions: Morganella morganii
Proteus morganii PR1 = assay: MIC by standard agar dilution test; assay type: cell-based; conditions: Morganella morganii, PR1, read-out: Minimum Inhibitory Concentration
Escherichia coli EC14 = assay: MIC by standard agar dilution test; assay type: cell-based; conditions: EC14, read-out: Minimum Inhibitory Concentration
[6] = system: Pseudomonas aeruginosa 4276; assay: MIC by standard agar dilution test; assay type: cell-based
[7] = system: Enterobacter aerogenes EB17; assay: MIC by standard agar dilution test; assay type: cell-based; conditions: Klebsiella aerogenes, EB17, read-out: Minimum Inhibitory Concentration
[8] = system: Pseudomonas aeruginosa SF-2; assay: MIC by standard agar dilution test; assay type: cell-based
[9] = system: Pseudomonas aeruginosa X239; assay: MIC by standard agar dilution test; assay type: cell-based
[10] = system: Pseudomonas aeruginosa PI23; assay: MIC by standard agar dilution test; assay type: cell-based
[11] = system: Staphylococcus aureus 3074; assay: MIC by standard agar dilution test; assay type: cell-based; conditions: Table II, read-out: Minimum Inhibitory Concentration
Source text: (§1) The antibacterial activity of the antibiotic compounds of this invention is illustrated by the following in vitro and in vivo test data obtained with representative compounds. In Tables I and II the minimum inhibitory concentration (MIC) for representative compounds against a wide range of gram-positive and gram-negative bacteria is presented. The MIC values were obtained by the standard agar dilution test.

Erwinia amylovora = assay: MIC by standard agar dilution test; assay type: cell-based; conditions: Table II, read-out: Minimum Inhibitory Concentration
Source text: as §1

[12] = system: Streptococcus faecalis X66; assay: MIC by standard agar dilution test; assay type: cell-based; conditions: Enterococcus faecalis, X66; Table II; agar dilution; read-out: Minimum Inhibitory Concentration
[13] = system: Pseudomonas aeruginosa X528; assay: MIC by standard agar dilution test; assay type: cell-based
Serratia marcescens SE2 = assay: MIC by standard agar dilution test; assay type: cell-based; conditions: SE2, read-out: Minimum Inhibitory Concentration
[14] = system: Pseudomonas aeruginosa X48; assay: MIC by standard agar dilution test; assay type: cell-based; conditions: X48, read-out: Minimum Inhibitory Concentration
Proteus morganii PR15 = assay: MIC by standard agar dilution test; assay type: cell-based; conditions: Morganella morganii, PR15; Table II; agar dilution; read-out: Minimum Inhibitory Concentration
[15] = system: Staphylococcus aureus 3055; assay: MIC by standard agar dilution test; assay type: cell-based; conditions: Staphylococcus aureus, 3055, read-out: Minimum Inhibitory Concentration
[16] = system: Enterobacter cloacae EN453; assay: MIC by standard agar dilution test; assay type: cell-based; conditions: EN453, read-out: Minimum Inhibitory Concentration
[17] = system: Pseudomonas aeruginosa Ps25; assay: MIC by standard agar dilution test; assay type: cell-based; conditions: PS25, read-out: Minimum Inhibitory Concentration
[18] = system: Klebsiella pneumoniae KL14; assay: MIC by standard agar dilution test; assay type: cell-based; conditions: KL14, read-out: Minimum Inhibitory Concentration
Serratia marcescens X99 = assay: MIC by standard agar dilution test; assay type: cell-based; conditions: X99, read-out: Minimum Inhibitory Concentration
[19] = system: Enterobacter aerogenes EB6; assay: MIC by standard agar dilution test; assay type: cell-based; conditions: Klebsiella aerogenes, EB6, read-out: Minimum Inhibitory Concentration
[20] = system: Pseudomonas aeruginosa Ps15; assay: MIC by standard agar dilution test; assay type: cell-based; conditions: PS15, read-out: Minimum Inhibitory Concentration
Proteus inconstans PV25 = assay: MIC by standard agar dilution test; assay type: cell-based; conditions: Providencia alcalifaciens, PV25, read-out: Minimum Inhibitory Concentration
[21] = system: Enterobacter cloacae EB24; assay: MIC by standard agar dilution test; assay type: cell-based; conditions: EB24, read-out: Minimum Inhibitory Concentration
Serratia marcescens SE3 = assay: MIC by standard agar dilution test; assay type: cell-based
[22] = system: Pseudomonas aeruginosa X239; assay: Subcutaneous therapy of Pseudomonas aeruginosa X239 infections in mice; assay type: in vivo; conditions: X239, sc, 2 subcutaneous doses at 1 and 5 hours post infection, dose to protect 50 percent of test animals, read-out: Effective Dose (ED50)
Method: Table III illustrates the effective dose (ED50, effective dose to protect 50 percent of the test animals) for representative compounds of this invention against an experimental bacterial infection in mice. | *mg/kg × 2 subcutaneous doses at 1 and 5 hours post infections The ED50 values were determined as described by W. E. Wick et al., Journal of Bacteriolocy, 81 [No. 2], 233-235 (1961).

[23] = PR2, Table 1, agar dilution, read-out: Minimum Inhibitory Concentration
[24] = Pseudomonas aeruginosa, 4276, read-out: Minimum Inhibitory Concentration
[25] = SF2, read-out: Minimum Inhibitory Concentration
[26] = X239, read-out: Minimum Inhibitory Concentration, Table II
[27] = SE3, read-out: Minimum Inhibitory Concentration, Table 1
[28] = SE3, read-out: Minimum Inhibitory Concentration, Table II
[29] = PS9, read-out: Minimum Inhibitory Concentration
[30] = X239, read-out: Minimum Inhibitory Concentration, Table 1
[31] = PI23, read-out: Minimum Inhibitory Concentration
[32] = X528, read-out: Minimum Inhibitory Concentration

| Compound | MIC [1] [µg/mL] | MIC [5] [µg/mL] | MIC (Salmonella typhosa SA12) [µg/mL] | MIC (Proteus morganii PR2; [23]) [µg/mL] | MIC (Proteus morganii PR1) [µg/mL] | MIC (Escherichia coli EC14) [µg/mL] | MIC [6, 24] [µg/mL] | MIC [7] [µg/mL] | MIC [8, 25] [µg/mL] | MIC [9, 26] [µg/mL] | MIC (Serratia marcescens SE2) [µg/mL] | MIC [14] [µg/mL] | MIC [16] [µg/mL] | MIC [17] [µg/mL] | MIC (Serratia marcescens X99) [µg/mL] | MIC [19] [µg/mL] | MIC [20] [µg/mL] | MIC (Proteus inconstans PV25) [µg/mL] | MIC [21] [µg/mL] | MIC (Serratia marcescens SE3; [27]) [µg/mL] | further results |
| --- | --- | --- | --- | --- | --- | --- | --- | --- | --- | --- | --- | --- | --- | --- | --- | --- | --- | --- | --- | --- | --- |
| CN[C@@H]1[C@@H](O[C@H]2O[C@H](CCl)[C@@H](N)[C@H](O)[C@H]2O)O[C@H]2C[C@@H](N)[C@@H](O[C@H]3[C@H](O)[C@@H](O)[C@H](N)C[C@@H]3N)O[C@@H]2[C@@H]1O [Test Compound 3, 6"-Chloro-6"-Deoxyapramycin] | 4 (≈ 7.17 µM) | 2 (≈ 3.58 µM) | 2 (≈ 3.58 µM) | 32 (≈ 57.3 µM) | 4 (≈ 7.17 µM) | 16 (≈ 28.7 µM) | 16 (≈ 28.7 µM) | 16 (≈ 28.7 µM) | 16 (≈ 28.7 µM) | 2 (≈ 3.58 µM) | 4 (≈ 7.17 µM) | 16 (≈ 28.7 µM) | 4 (≈ 7.17 µM) | 16 (≈ 28.7 µM) | 4 (≈ 7.17 µM) | 4 (≈ 7.17 µM) | 16 (≈ 28.7 µM) | 4 (≈ 7.17 µM) | 4 (≈ 7.17 µM) | 4 (≈ 7.17 µM) | MIC ([2]; PS9, Table 1, agar dilution, read-out: Minimum Inhibitory Concentration): 32 µg/mL (≈ 57.3 µM); MIC ([3]; CF17, read-out: Minimum Inhibitory Concentration): 4 µg/mL (≈ 7.17 µM); MIC (Salmonella typhimurium; Table II, agar dilution): 8 µg/mL (≈ 14.3 µM); MIC ([4]; Bordetella bronchiseptica, 16, Table II, agar dilution, read-out: Minimum Inhibitory Concentration): 8 µg/mL (≈ 14.3 µM); MIC ([9]; X239, Table 1, read-out: Minimum Inhibitory Concentration): 8 µg/mL (≈ 14.3 µM); MIC ([10]; PI23, Table 1, agar dilution, read-out: Minimum Inhibitory Concentration): > 128 µg/mL; MIC [11]: 1 µg/mL (≈ 1.79 µM); MIC (Erwinia amylovora): 1 µg/mL (≈ 1.79 µM); MIC [12]: 8 µg/mL (≈ 14.3 µM); MIC ([13]; X528, Table 1, agar dilution, read-out: Minimum Inhibitory Concentration): 32 µg/mL (≈ 57.3 µM); MIC (Proteus morganii PR15): 8 µg/mL (≈ 14.3 µM); MIC [15]: 1 µg/mL (≈ 1.79 µM); MIC [18]: 2 µg/mL (≈ 3.58 µM); MIC (Serratia marcescens SE3; [28]): 16 µg/mL (≈ 28.7 µM) |
| CN[C@@H]1[C@@H](O[C@H]2O[C@H](C)[C@@H](N)[C@H](O)[C@H]2O)O[C@H]2C[C@@H](N)[C@@H](O[C@H]3[C@H](O)[C@@H](O)[C@H](N)C[C@@H]3N)O[C@@H]2[C@@H]1O [Test Compound 4, 6"-Deoxyapramycin] | 4 (≈ 7.64 µM) | 4 (≈ 7.64 µM) | 4 (≈ 7.64 µM) | 8 (≈ 15.3 µM) | 4 (≈ 7.64 µM) | 16 (≈ 30.6 µM) |  | 4 (≈ 7.64 µM) |  | 2 (≈ 3.82 µM) | 4 (≈ 7.64 µM) | 4 (≈ 7.64 µM) | 4 (≈ 7.64 µM) | 4 (≈ 7.64 µM) | 2 (≈ 3.82 µM) | 4 (≈ 7.64 µM) | 4 (≈ 7.64 µM) | 2 (≈ 3.82 µM) | 4 (≈ 7.64 µM) | 4 (≈ 7.64 µM) | MIC [2, 29]: 16 µg/mL (≈ 30.6 µM); MIC ([3]; CF17, Table II, agar dilution, read-out: Minimum Inhibitory Concentration): 8 µg/mL (≈ 15.3 µM); MIC (Salmonella typhimurium): 16 µg/mL (≈ 30.6 µM); MIC ([4]; Bordetella bronchiseptica, 16, read-out: Minimum Inhibitory Concentration): 16 µg/mL (≈ 30.6 µM); ED50 [22]: 10.9 mg/kg; MIC ([6]; Pseudomonas aeruginosa, 4276, Table 1, agar dilution, read-out: Minimum Inhibitory Concentration): 8 µg/mL (≈ 15.3 µM); MIC ([8]; SF2, Table 1, agar dilution, read-out: Minimum Inhibitory Concentration): 8 µg/mL (≈ 15.3 µM); MIC [9, 30]: 4 µg/mL (≈ 7.64 µM); MIC [10, 31]: > 128 µg/mL; MIC [11]: 1 µg/mL (≈ 1.91 µM); MIC (Erwinia amylovora): 2 µg/mL (≈ 3.82 µM); MIC [12]: 8 µg/mL (≈ 15.3 µM); MIC [13, 32]: 16 µg/mL (≈ 30.6 µM); MIC (Proteus morganii PR15): 8 µg/mL (≈ 15.3 µM); MIC [15]: 2 µg/mL (≈ 3.82 µM); MIC [18]: 4 µg/mL (≈ 7.64 µM); MIC (Serratia marcescens SE3; [28]): 16 µg/mL (≈ 30.6 µM) |
| CN[C@@H]1[C@@H](O[C@H]2O[C@H](CO[Si](C)(C)C(C)(C)C)[C@@H](N)[C@H](O)[C@H]2O)O[C@H]2C[C@@H](N)[C@@H](O[C@H]3[C@H](O)[C@@H](O)[C@H](N)C[C@@H]3N)O[C@@H]2[C@@H]1O [Test Compound 6, 6"-O-(tert-Butyldimethylsilyl)Apramycin] | 32 (≈ 48.9 µM) |  |  |  | 32 (≈ 48.9 µM) |  | 128 (≈ 196 µM) |  | 128 (≈ 196 µM) |  | 64 (≈ 97.9 µM) | > 128 | 32 (≈ 48.9 µM) | 128 (≈ 196 µM) | 32 (≈ 48.9 µM) | 32 (≈ 48.9 µM) | 128 (≈ 196 µM) | 16 (≈ 24.5 µM) | 16 (≈ 24.5 µM) | 64 (≈ 97.9 µM) | MIC [2, 29]: > 128 µg/mL; MIC (Proteus morganii PR2; PR2, read-out: Minimum Inhibitory Concentration): 64 µg/mL (≈ 97.9 µM); MIC [9, 30]: 128 µg/mL (≈ 196 µM); MIC [10, 31]: > 128 µg/mL; MIC [13, 32]: 64 µg/mL (≈ 97.9 µM) |
